For test [1], the target named is T1, Short transient receptor potential channel 4 (Mus musculus, UniProt Q9QUQ5).
T1 sequence (Q9QUQ5 whole entry): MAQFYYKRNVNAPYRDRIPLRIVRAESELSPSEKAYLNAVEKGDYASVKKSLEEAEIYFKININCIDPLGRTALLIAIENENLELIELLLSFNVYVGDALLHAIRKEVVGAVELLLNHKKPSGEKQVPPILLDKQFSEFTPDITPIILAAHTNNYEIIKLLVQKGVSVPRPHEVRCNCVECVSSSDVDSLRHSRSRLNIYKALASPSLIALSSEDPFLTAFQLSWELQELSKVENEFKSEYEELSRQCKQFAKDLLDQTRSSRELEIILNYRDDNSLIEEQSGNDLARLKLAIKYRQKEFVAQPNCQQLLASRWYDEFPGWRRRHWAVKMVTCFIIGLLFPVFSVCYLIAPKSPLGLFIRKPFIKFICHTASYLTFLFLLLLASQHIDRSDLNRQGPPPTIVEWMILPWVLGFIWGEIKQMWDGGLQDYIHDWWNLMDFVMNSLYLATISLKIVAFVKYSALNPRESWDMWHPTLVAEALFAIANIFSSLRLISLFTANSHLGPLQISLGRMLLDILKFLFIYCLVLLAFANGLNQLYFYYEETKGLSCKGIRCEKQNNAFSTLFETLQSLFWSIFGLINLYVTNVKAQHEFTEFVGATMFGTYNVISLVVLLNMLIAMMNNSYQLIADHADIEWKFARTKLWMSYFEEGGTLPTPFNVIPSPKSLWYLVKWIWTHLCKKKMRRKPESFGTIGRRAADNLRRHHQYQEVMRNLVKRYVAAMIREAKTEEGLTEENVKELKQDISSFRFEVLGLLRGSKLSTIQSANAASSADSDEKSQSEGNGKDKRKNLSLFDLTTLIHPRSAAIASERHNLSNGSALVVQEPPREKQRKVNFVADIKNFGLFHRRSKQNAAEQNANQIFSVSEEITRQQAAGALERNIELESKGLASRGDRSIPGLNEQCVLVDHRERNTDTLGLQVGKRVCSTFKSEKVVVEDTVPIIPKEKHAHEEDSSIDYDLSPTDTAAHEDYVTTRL
Briefly: mouse TRPC4 channel inhibitors, dose response, cell-based, HEK293 TRPC4/mu-opioid, Fluo-4 calcium (AID 434942).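 Further: potency of inhibitors blocking the TRPC4 calcium response.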 Type of test: functional.

The test system of test [2] is BJ. As to the kind of experiment: cytotoxicity toward BJ-TERT-LT-ST fibroblasts, dose response, cell-based, RAS-independent, luminescence (AID 1935).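 Further: BJ fibroblasts immortalized with TERT plus LT and ST oncogenes.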 It is filed as functional. The note with it: Homo sapiens.
Test [3] relates to BJ. As to the kind of experiment: cytotoxicity toward BJ-TERT fibroblasts, dose response, cell-based, RAS-independent, luminescence (AID 1933). It is filed as functional. The note with it: Homo sapiens.
Test [4] relates to BJ. Briefly: cells. To be noted: Homo sapiens. It is filed as functional, cell-based.
A short description of test [5]: cytotoxicity toward DRD oncogenic fibroblasts, dose response, cell-based, non-viral oncogenic, luminescence (AID 1934). It is filed as functional. To be noted: Homo sapiens.
The next test addresses T2, Coagulation factor XII (Homo sapiens, UniProt P00748).
T2 sequence (P00748 whole entry): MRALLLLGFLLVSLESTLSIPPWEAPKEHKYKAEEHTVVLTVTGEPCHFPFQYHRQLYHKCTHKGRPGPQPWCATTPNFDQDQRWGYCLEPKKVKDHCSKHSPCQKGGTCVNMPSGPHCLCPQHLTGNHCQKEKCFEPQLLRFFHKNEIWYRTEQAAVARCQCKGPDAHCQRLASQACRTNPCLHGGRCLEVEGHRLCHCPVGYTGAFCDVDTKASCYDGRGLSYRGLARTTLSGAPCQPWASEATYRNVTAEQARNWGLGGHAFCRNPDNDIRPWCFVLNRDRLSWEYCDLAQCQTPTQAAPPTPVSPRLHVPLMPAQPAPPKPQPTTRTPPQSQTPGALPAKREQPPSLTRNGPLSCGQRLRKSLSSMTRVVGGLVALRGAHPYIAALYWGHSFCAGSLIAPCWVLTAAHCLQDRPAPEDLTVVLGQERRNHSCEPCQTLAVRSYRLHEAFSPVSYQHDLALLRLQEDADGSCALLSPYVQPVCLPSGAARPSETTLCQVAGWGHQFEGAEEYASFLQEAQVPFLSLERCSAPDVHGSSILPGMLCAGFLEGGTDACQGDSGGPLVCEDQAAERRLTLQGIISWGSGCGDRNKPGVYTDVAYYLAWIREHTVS
It is filed as functional.

In test [6] the target is Peroxisome proliferator-activated receptor gamma/Nuclear receptor coactivator 2 (Homo sapiens, UniProt P37231). Type of test: functional.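 Further: agonist potency for raising coactivator recruitment to the receptor.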
Sequence of Peroxisome proliferator-activated receptor gamma/Nuclear receptor coactivator 2 (P37231 whole entry): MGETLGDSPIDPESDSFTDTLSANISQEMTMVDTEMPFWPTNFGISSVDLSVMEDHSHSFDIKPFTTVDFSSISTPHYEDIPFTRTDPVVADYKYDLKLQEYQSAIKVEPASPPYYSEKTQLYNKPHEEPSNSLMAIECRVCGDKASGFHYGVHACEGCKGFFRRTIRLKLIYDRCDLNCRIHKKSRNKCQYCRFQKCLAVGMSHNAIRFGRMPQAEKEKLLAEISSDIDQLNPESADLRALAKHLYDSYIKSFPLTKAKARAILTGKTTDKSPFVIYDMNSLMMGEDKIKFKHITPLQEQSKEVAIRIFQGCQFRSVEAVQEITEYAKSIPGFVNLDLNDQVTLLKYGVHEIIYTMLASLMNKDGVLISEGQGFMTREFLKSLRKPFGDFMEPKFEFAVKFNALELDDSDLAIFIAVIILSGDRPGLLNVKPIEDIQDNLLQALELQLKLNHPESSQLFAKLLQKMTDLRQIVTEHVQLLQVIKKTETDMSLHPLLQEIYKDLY
Sequence of Peroxisome proliferator-activated receptor gamma/Nuclear receptor coactivator 2 (Q15596 whole entry, further chain): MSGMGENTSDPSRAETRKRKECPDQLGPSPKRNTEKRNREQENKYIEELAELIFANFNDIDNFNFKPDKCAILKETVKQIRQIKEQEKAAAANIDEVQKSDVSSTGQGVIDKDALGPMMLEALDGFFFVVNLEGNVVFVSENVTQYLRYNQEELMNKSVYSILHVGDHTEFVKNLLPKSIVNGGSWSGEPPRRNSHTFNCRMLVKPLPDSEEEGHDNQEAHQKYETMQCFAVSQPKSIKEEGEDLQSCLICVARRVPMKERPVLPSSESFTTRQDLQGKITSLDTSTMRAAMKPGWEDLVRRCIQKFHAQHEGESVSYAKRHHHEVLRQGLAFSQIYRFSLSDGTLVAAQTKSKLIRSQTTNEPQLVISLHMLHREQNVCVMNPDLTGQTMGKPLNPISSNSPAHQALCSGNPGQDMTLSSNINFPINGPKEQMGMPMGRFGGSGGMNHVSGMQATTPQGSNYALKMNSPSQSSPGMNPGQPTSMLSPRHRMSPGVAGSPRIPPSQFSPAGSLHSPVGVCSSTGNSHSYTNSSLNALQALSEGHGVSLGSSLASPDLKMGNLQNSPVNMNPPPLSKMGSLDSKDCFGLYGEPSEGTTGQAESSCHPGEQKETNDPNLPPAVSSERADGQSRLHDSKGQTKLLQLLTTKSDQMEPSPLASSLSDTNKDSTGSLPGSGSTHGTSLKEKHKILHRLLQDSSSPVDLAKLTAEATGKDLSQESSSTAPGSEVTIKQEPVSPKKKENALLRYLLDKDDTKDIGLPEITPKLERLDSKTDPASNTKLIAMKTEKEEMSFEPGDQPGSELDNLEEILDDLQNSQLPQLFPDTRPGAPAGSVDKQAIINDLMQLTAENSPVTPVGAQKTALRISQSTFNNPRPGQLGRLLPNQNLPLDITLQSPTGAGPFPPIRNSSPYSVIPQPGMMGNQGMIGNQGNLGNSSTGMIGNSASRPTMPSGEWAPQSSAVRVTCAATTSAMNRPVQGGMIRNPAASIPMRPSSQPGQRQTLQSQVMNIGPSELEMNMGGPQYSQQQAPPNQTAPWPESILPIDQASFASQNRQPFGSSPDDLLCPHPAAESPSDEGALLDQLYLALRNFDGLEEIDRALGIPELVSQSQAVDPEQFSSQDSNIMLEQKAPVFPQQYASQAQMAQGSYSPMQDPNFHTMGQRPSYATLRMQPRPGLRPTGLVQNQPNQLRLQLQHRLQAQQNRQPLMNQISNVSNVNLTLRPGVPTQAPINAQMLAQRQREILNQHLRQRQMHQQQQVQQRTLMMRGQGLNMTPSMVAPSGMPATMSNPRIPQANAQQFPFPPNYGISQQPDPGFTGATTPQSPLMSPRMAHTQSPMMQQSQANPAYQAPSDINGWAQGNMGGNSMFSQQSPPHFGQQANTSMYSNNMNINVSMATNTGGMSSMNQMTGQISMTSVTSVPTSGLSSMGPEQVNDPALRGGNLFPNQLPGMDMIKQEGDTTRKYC
Test [7] has as its target Peroxisome proliferator-activated receptor gamma/Nuclear receptor coactivator 3 (Homo sapiens, UniProt P37231). Type of test: functional.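 Further: agonist potency for raising coactivator recruitment to the receptor.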
The target in test [8] is Peroxisome proliferator-activated receptor gamma/Nuclear receptor coactivator 1 (Homo sapiens, UniProt P37231). Type of test: functional.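 Further: agonist potency as compounds enhance coactivator SRC-1 recruitment to PPARgamma.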
In the next test the target is T3, Hexokinase (Trypanosoma brucei, UniProt Q38C41).
T3 sequence (Q38C41 whole entry): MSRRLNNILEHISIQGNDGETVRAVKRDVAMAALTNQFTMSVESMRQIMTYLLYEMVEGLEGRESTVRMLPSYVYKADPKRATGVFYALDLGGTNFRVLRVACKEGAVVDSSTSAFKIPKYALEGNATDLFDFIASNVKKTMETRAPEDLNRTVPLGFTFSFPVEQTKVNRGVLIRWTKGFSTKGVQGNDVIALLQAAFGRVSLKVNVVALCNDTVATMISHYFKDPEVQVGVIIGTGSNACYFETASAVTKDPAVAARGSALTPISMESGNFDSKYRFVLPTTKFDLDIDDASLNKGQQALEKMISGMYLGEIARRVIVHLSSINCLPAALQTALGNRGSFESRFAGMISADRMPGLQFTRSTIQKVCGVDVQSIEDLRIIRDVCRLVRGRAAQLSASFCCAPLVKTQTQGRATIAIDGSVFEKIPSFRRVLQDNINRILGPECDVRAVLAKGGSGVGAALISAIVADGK
Briefly: Confirmation assay for inhibitors of Trypanosoma brucei hexokinase 1-Analogue-first series. [Related pubchem assays (depositor defined):AID1430, AID1632, AID2516, AID2560, AID2579, AID2600, AID449725, AID492951]. It is filed as functional.

Test [9] can be described thus: A cytotoxicity screen of small molecule inhibitors of the PhoP region in Salmonella typhi identified in the primary screen. [Related pubchem assays: 1850, 1864, 1985 ]. It is filed as functional.
In test [10] the target is T4, Ubiquitin-conjugating enzyme E2 N (Homo sapiens, UniProt P61088).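 Further: Dose-response confirmation in a TR-FRET assay detecting UBC13-driven polyubiquitin chain formation, inhibition measured.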
T4 sequence (P61088 whole entry): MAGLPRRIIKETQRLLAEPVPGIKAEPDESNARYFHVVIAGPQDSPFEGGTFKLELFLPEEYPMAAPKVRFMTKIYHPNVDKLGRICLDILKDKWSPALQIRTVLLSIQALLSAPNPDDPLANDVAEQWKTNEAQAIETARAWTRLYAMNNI
Type of test: functional.

Test [11] is described as follows: cytotoxicity in MIN6 insulinoma cells, dose response, cytotoxicity control, cell-based, mouse insulinoma (AID 2122).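 Further: confirmatory high-throughput counterscreen run to flag cytotoxic compounds; mouse MIN-6 beta cells carrying an insulin promoter eGFP reporter.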 It is filed as functional.
A short description of test [12]: Luminescence Cell-Based Dose Retest to Confirm Inhibitors of Cancer Stem Cells. [Related pubchem assays (depositor defined):AID2717, AID2721]. Type of test: functional. The note with it: Homo sapiens.
A further test relates to INS1. Briefly: beta cell apoptosis inhibitors, cytokine rescue, dose response, luminescence, retest (AID 449756).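 Further: cell death triggered by IL-1 beta plus TNF-alpha plus IFN-gamma mixture; protective hits raise ATP signal compared with cytokine alone wells.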 Type of test: functional, cell-based. The note with it: Rattus norvegicus.
Test [13] in a line: cytotoxicity toward NIH3T3 fibroblasts, dose response, counter-screen, cell-based, ATP luminescence, mouse fibroblasts (AID 2010).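 Further: cells exposed to compound for about 90 hours before reading.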 Type of test: functional. (Counterscreens check selectivity or assay interference.)
The nature of test [14]: inhibitors of intracellular T. cruzi replication, confirmation, NIH3T3 host cells, beta-gal luminescence (AID 2044).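 Further: intracellular parasites grown in NIH/3T3 mouse fibroblasts as host cells; luminescent beta-galactosidase reporter signal from transgenic T. cruzi replicating inside host cells; inhibitors lower the luminescence signal.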 It is filed as functional, cell-based.
Test [15] can be described thus: insulin promoter down-regulators in MIN6 cells, imaging, high-content screening, mouse beta cells (AID 1628). Type of test: functional.
Test [16] addresses T5, Voltage-gated N-type calcium channel alpha-1B subunit/Amyloid beta A4 precursor protein-binding family A member 1 (Homo sapiens, UniProt Q00975+Q02410). Type of test: protein assay.
Test [17] has as its target Glucose-6-phosphate 1-dehydrogenase (Homo sapiens, UniProt P11413). Briefly: human G6PD enzyme inhibitors, dose response, selectivity assay for P. falciparum G6PD inhibitor project, biochemical, fluorescence (AID 504792). Type of test: functional.
The target of test [18] is T5, Voltage-gated N-type calcium channel alpha-1B subunit/Amyloid beta A4 precursor protein-binding family A member 1. It is filed as protein assay. This is another data set of the same source.
The target of test [19] is DNA dC->dU-editing enzyme APOBEC-3A (Homo sapiens, UniProt P31941). As to the kind of experiment: APOBEC3A DNA deaminase inhibitors, dose response, biochemical (AID 504722). Type of test: functional.
Sequence of DNA dC->dU-editing enzyme APOBEC-3A (P31941 whole entry): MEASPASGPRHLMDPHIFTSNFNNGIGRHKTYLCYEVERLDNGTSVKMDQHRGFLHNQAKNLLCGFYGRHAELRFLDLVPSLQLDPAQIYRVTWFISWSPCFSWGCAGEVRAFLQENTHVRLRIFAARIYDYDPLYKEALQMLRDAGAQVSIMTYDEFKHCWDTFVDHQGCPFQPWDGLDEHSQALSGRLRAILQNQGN
Test [20] has as its target DNA dC->dU-editing enzyme APOBEC-3G (Homo sapiens, UniProt Q9HC16). As to the kind of experiment: Dose Response confirmation of small molecule APOBEC3G DNA Deaminase Inhibitors via a fluorescence-based single-stranded DNA deaminase assay. [Related pubchem assays (depositor defined):AID493012, AID493028]. Type of test: functional.

One may read the EC50 as the concentration giving half of the maximal effect. By IC50 is commonly meant the concentration that gives 50% inhibition. In general, AC50 refers to the concentration giving half of the maximal activity seen.

SMILES strings stand for the structures. Activity calls are given as the source filed them. Some results are limits rather than exact numbers.

Sequence of Peroxisome proliferator-activated receptor gamma/Nuclear receptor coactivator 3 (P37231 whole entry): as the sequence (P37231 whole entry) above
Sequence of Peroxisome proliferator-activated receptor gamma/Nuclear receptor coactivator 3 (Q9Y6Q9 whole entry, further chain): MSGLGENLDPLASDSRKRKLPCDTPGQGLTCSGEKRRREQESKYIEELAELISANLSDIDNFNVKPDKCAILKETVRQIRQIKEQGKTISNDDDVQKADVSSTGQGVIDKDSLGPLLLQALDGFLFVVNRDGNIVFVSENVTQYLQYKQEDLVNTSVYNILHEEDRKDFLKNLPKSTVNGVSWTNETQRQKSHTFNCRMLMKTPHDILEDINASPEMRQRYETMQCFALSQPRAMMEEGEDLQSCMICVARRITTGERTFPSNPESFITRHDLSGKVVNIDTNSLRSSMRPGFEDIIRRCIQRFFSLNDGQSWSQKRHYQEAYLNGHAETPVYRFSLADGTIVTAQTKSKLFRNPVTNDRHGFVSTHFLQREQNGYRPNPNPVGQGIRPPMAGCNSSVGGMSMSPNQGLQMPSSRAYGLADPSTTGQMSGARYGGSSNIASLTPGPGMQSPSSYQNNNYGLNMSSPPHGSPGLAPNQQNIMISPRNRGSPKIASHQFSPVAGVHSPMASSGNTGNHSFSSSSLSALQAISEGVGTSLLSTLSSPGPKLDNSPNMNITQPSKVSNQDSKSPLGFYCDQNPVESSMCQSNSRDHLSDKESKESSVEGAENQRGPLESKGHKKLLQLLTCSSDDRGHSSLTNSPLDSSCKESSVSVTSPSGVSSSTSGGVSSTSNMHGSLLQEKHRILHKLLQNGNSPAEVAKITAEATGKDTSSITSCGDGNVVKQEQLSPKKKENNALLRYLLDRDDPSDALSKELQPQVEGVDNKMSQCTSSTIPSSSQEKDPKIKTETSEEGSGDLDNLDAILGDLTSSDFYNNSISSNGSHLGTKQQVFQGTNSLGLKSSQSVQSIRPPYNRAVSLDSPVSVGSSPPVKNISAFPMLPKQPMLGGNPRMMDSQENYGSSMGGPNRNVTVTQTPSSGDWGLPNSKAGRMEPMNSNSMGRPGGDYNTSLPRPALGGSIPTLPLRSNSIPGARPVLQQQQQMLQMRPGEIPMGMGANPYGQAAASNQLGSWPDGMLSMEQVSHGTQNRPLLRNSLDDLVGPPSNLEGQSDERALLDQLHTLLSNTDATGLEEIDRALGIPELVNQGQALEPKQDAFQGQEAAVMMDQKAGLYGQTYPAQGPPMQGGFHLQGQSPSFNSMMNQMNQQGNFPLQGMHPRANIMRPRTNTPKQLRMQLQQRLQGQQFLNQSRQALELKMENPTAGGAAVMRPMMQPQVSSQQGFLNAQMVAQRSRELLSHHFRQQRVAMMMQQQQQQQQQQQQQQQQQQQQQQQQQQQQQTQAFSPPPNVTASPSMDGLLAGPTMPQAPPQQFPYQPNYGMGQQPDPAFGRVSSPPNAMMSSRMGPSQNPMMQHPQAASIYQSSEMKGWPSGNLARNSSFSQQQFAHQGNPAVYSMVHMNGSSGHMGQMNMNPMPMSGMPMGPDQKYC
Sequence of DNA dC->dU-editing enzyme APOBEC-3G (Q9HC16 whole entry): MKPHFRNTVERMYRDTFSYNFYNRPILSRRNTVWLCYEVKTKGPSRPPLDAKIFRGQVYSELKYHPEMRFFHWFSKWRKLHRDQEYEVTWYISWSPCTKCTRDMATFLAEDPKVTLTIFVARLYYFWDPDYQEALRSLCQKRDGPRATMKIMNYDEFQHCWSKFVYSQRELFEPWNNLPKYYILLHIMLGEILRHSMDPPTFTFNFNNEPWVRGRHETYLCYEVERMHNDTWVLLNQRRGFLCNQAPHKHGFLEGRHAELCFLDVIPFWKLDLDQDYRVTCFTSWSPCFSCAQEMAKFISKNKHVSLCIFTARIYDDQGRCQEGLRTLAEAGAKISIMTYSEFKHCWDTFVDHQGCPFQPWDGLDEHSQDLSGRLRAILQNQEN
Sequence of Glucose-6-phosphate 1-dehydrogenase (P11413 whole entry): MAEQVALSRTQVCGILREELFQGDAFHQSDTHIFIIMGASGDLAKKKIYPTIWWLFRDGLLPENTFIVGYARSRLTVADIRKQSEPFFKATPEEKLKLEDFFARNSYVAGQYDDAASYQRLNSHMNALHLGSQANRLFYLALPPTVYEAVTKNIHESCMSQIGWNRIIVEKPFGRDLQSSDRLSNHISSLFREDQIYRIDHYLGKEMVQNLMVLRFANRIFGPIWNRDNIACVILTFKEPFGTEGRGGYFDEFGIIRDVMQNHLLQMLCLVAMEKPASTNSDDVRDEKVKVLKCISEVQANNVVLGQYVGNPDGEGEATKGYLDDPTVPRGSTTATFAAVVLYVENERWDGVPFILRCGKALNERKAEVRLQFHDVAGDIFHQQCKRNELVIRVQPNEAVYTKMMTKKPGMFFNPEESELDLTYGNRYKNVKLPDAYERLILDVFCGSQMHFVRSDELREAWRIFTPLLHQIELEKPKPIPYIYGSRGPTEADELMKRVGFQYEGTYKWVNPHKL

With `COc1ccc(-n2c3c(cc(C(=O)NCc4ccco4)c2=O)C(=O)CC(C)(C)C3)cc1`, in [1], the EC50 is 3.76 µM (active).

As for `COc1cccc2cc(-c3csc(NC(=O)CCC(=O)NCCCN4CCC(C)CC4)n3)c(=O)oc12`, the EC50 was > 150 µM (not active) in the test on BJ [2], 12.7 µM (active) in the test with BJ [3], 13.3 µM (active) in the test with BJ [4] and 11.5 µM (active) in test [5].

With `O=C1c2ccccc2C(=O)N1OS(=O)(=O)c1ccccc1`, the IC50 on Coagulation factor XII is 1.61 µM (active).

Take `COc1ccc(-c2[nH]c3ccccc3c2SCCNC(=O)c2ccccc2)cc1`: the results for the 50% effective concentration (EC50) in test [6], in [7] and in test [8] were 33.6 µM (not active), < 79.4 µM (not active) and 39.5 µM (not active), respectively.

For the compound `CC(C)(C)c1ccc(C(=O)Nc2cc(Cl)ccc2O)cc1`, the IC50 on Hexokinase was 25 µM (inactive).

Take `O=C(NNc1cc(Cl)ccc1Cl)c1c(F)cccc1Cl`: at Coagulation factor XII, the IC50 is > 50 µM (inactive).

As for `CCCC1(c2ccccc2)NC(=O)N(CC(=O)Nc2cc(S(=O)(=O)N3CCOCC3)ccc2Cl)C1=O` (configuration not stated), in [9], the EC50 was > 50 µM (active).

On to `O=C(Cn1sc2ccccc2c1=O)Nc1ccccc1I`, for which the IC50 on Hexokinase is 4.75 µM (active).

With `CCn1cc(/C=C/C(=O)Nc2ccn(Cc3c(F)c(F)c(F)c(F)c3F)n2)cn1`, the EC50 in test [6], in test [7] and in test [8] was > 79.4 µM (not active) in each case.

`COC(=O)Cc1ccc(NC(S)=NCc2ccc(Cl)cc2)cc1`: the EC50 in test [9] was > 50 µM (active).

As for `COc1ccc(C(=O)Nc2cc(I)ccc2C(=O)O)cc1`, the IC50 at Hexokinase is 14.2 µM (active).

As to `COc1cc(OC)cc(C(=O)Nc2ccc(NC(=O)c3ccco3)c(C)c2)c1`, the EC50 was 19.5 µM (active) in the test on BJ [2], 15.2 µM (active) with BJ [3], 10.1 µM (active) in the test with BJ [4] and 9.93 µM (active) in [5].

On to `Cc1ccc(C)c2[nH]c(=O)c(CN(Cc3nnnn3C3CCCCC3)CC3CCCO3)cc12` (configuration not stated), for which the EC50 in test [1] is 1.68 µM (active). For the same compound, the IC50 at Coagulation factor XII is > 50 µM (inactive).

On to `COc1ccc(OC)c(NC(=O)CSc2nnc(N)s2)c1`, for which the EC50 in test [6], in test [7] and in test [8] was > 79.4 µM (not active) in each case.

Take `CCCC(C)NC(=O)Cc1ccccc1` (configuration not stated): the IC50 at Coagulation factor XII was > 50 µM (inactive).

Consider `CCc1ccc2c(c1)cc(CN(C(=S)Nc1ccc(Cl)cc1)C1CC1)c1nnnn12`, for which the EC50 was 8.9 µM (active) in test [6], 11.6 µM (not active) in test [7] and 11.5 µM (not active) in test [8].

Regarding `Cc1nc(N)sc1C(=O)N/N=C/c1ccco1`, in [10], the IC50 was > 20 µM (inactive).

For `O=C1c2cccc(Br)c2SCN1c1ccccc1`, the IC50 at Hexokinase is > 25 µM (inactive).

As for `COc1cccc(-c2ccc(SCc3ccccn3)nn2)c1`, the EC50 in test [9] is > 50 µM (active).

On to `CCCCCCNC(=O)N[C@@H](C(=O)NCCC[C@H]1CN2C(=NC[C@@H]2Cc2ccccc2)N1CCc1cccc(OC)c1)C(C)C`, for which, in test [10], the IC50 was > 20 µM (inactive).

Consider `COCCn1c(SCc2ccc(F)cc2)nc2ccccc2c1=O`, for which, in test [1], the EC50 was 2.37 µM (active).

Take `NS(=O)(=O)c1ccc(N/N=C/c2cn(-c3ccccc3)nc2-c2cccs2)c([N+](=O)[O-])c1`: the EC50 in the test on BJ [2] is 6.17 µM (inconclusive); in the test on BJ [3] it was 4.24 µM (active); in the test on BJ [4] it was 19.4 µM (active); in test [13] it was 12.4 µM (active); in test [14], 0.846 µM (active); in [5], 8.22 µM (active). For the same compound, the IC50 in [11] was 4.7 µM (active); in test [15], 1.43 µM (active). The AC50 in test [12] was 1.39 µM (active); in the test on INS1 it was 4.07 µM (active).

Regarding `O=C(Nc1ccncc1)Nc1ccc(Cl)cc1`, in test [9], the EC50 was > 50 µM (active).

On to `Cc1cc(C)c2c(=O)n(CC(=O)Nc3cccc(F)c3)sc2n1`, for which the IC50 is 8.62 µM (active) in [16]; 22.1 µM (inactive) in test [17]; > 50 µM (inactive) in test [18]; > 100 µM (inactive) in [19]; 4.35 µM (active) in test [20].
